{"source": "patent US8293979B2", "about": "“Weed controller metabolism proteins, genes, thereof and use of the same” (Sumitomo Chemical Company, Limited, priority 2001, dated 2012)", "key": {"Ivyleaf morningglory": {"tested_on": "Ivyleaf morningglory", "assay": "Herbicidal activity test, soil surface treatment", "type": "in vivo, Ipomoea hederacea", "design": "key: 0: situations in which the condition of sprouting or vegetation at the time of examination of the plant utilized for the test was compared with and showed totally or substantially no difference with that of the untreated application; 10: situations in which the plant completely withered or the sprouting or vegetation was completely suppressed", "details": "500 g/ha, sprayed onto the surface of the soil after seeding, investigated after 19 days in a greenhouse", "protocol": "Soil was packed into a round plastic pot having a diameter of 10 cm and depth of 10 cm. Barnyardgrass, Blackgrass, Ivyleaf morningglory were seeded. Five (5) parts of the test compound, 6 parts of sorpol3005X (Toho Chemical Company) and 89 parts of xylene were well mixed to produce an emulsion. A certain amount thereof was diluted with water containing 0.1% (v/v) of a sticking agent at a proportion of 1000 L for 1 hectare and was spread uniformly with a spray-gun onto the surface of the soil. After cultivating the plants for 19 days in a greenhouse, the herbicidal activity was investigated.\nIn the above Tables 3 and 4, the strength of the herbicidal activity is shown stepwise as 0, 1, 2, 3, 4, 5, 6, 7, 8, 9, and 10."}, "[1]": {"tested_on": "leaf pieces derived from the tobacco to which the control DNA (T-DNA region of plasmid pBI121S) was introduced", "assay": "Herbicidal damage of tobacco leaf pieces on MS agar medium containing compound (II)", "type": "cell-based, Nicotiana tabacum strain SR1", "details": "MS agar medium containing 0.1 mg/L of compound (II), in the light at room temperature, 7th day of culturing", "protocol": "Then, according to the method described in Manual for Gene Manipulation of Plant (by Hirofumi UCHIMIYA, Kodan-sha Scientific, 1992), the gene was introduced into tobacco. Agrobacterium strains bearing the above plasmids were each cultured at 28° C. overnight in LB medium containing 300 mg/L streptomycin, 100 mg/L rifampicin and 25 mg/L kanamycin, and then leaf pieces of tobacco (Nicotiana tabacum strain SR1) cultured sterilely were dipped in the liquid culture medium. The leaf pieces were planted and cultured at room temperature for 2 days in the light in MS agar medium (MS inorganic salts, MS vitamins, 3% sucrose and 0.8% agar; described in Murashige T. and Skoog F., Physiol. Plant. (1962) 15, p 473) containing 0.1 mg/L of naphthalene acetic acid and 1.0 mg/L of benzyl aminopurine. Then, the leaf pieces were washed with sterilized water and cultured for 7 days on MS agar medium containing 0.1 mg/L of naphthalene acetic acid, 1.0 mg/L of benzyl aminopurine and 500 mg/L of cefotaxime. Next, the leaf pieces were transplanted and cultured in MS agar medium containing 0.1 mg/L of naphthalene acetic acid, 1.0 mg/L of benzyl aminopurine, 500 mg/L of cefotaxime and 100 mg/L of kanamycin. The culture was conducted continuously for 4 months while transplanting the leaf pieces to fresh medium of the same composition at intervals of 4 weeks. […]"}, "[2]": {"tested_on": "present invention protein (A16)", "assay": "Detection of the ability to convert compound (II) to compound (III), E. coli pKSN452F extract", "type": "in vitro ADME, Streptomyces ornatus IFO 13069t", "details": "3 ppm of compound (II) labeled with 14C, components A, B, 10 minutes at 30° C.", "protocol": "Reaction solutions of 30 μl were prepared and maintained for 10 minutes at 30° C. The reaction solutions consisted of a 0.1M potassium phosphate buffer (pH7.0) containing 3 ppm of compound (II) labeled with ^14C, 2 mM of β-NADPH (hereinafter, referred to as “component A”) (Oriental Yeast Company), 2 mg/ml of a ferredoxin derived from spinach (hereinafter referred to as “component B”) (Sigma Company), 0.1 U/ml of ferredoxin reductase (hereinafter, referred to as “component C”) (Sigma Company) and 23 μl of the supernatant fraction recovered in Example 32(2). Similarly to Example 4(3), the reaction solutions after the maintenance were extracted with ethyl acetate and the extracted layers were TLC analyzed. […] A spot corresponding to compound (III) was detected from the reaction solution containing E. coli pKSN849AF extract. In contrast, such a spot was not detected from the reaction solution containing E. coli pKSN2 extract.\nSimilarly to Example 32(3), reaction solutions of 30 μl were prepared and maintained for 10 minutes at 30° C. […] The reaction solutions after the maintenance were extracted with ethyl acetate and the extracted layers were TLC analyzed. […] A spot corresponding to compound (III) was detected from the reaction solution containing E. coli pKSN452F extract. In contrast, such a spot was not detected from the reaction solution containing E. coli pKSN2 extract."}}, "data": [{"smiles": "C[C@@H](Oc1cc(-n2c(=O)cc(C(F)(F)F)n(C)c2=O)c(F)cc1Cl)C(=O)O", "note": "[compound (II)]", "values": [{"measurement": "Herbicidal Activity Ivyleaf Morningglory", "setting": "Ivyleaf morningglory", "value": 10}, {"measurement": "herbicidal damage of the leaf pieces", "setting": "[1]", "value": "turned white and withered"}, {"measurement": "spot corresponding to compound (III) labeled with 14C (TLC)", "setting": "[2]", "value": "detected"}]}]}
